Assay [1] concerns SKM-1. Nature of the assay: Induction of apoptosis in human SKM-1 cells at 5 uM relative to control. It is filed as functional.
Assay [2] deals with OCI-AML2. In words: Induction of apoptosis in human OCI-AML2 cells at 10 uM relative to control. It counts as functional.
In assay [3] the target is T1, NAD-dependent protein deacylase sirtuin-5, mitochondrial (Homo sapiens, UniProt Q9NXA8). In words: Inhibition of SIRT5 desuccinylase activity (unknown origin) using succinyl-lysine as substrate.
T1 sequence (Q9NXA8 whole entry): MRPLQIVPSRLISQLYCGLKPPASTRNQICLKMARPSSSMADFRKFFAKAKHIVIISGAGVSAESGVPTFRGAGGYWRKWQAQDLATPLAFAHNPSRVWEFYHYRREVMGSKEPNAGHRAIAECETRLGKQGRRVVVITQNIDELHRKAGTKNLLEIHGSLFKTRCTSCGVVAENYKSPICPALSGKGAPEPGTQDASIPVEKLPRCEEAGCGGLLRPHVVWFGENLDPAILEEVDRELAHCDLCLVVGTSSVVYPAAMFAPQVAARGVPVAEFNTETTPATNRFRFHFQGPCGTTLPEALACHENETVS
Assay [4] relates to OCI-AML2. Nature of the assay: cells. Particulars: Homo sapiens.
Description: Cytotoxicity against human OCI-AML2 cells
Assay [5] has as its system SKM-1. In words: Induction of apoptosis in human SKM-1 cells at 20 uM relative to control. It counts as functional.
In assay [6] the test system is SKM-1. Nature of the assay: cells. Particulars: Homo sapiens.
Description: Cytotoxicity against human SKM-1 cells
In assay [7] the target is T1, NAD-dependent protein deacylase sirtuin-5, mitochondrial. In words: Binding affinity to SIRT5 (unknown origin) assessed as deglutarylase activity by measuring inhibition constant.
Assay [8] has as its system OCI-AML2. In words: Induction of apoptosis in human OCI-AML2 cells at 20 uM relative to control. It is filed as functional.
For another assay, the system named is MOLM-13. Nature of the assay: Cytotoxicity against human MOLM-13 cells. It is filed as functional, cell-based.
The target of assay [9] is T1, NAD-dependent protein deacylase sirtuin-5, mitochondrial. In words: Inhibition of SIRT5 activity (unknown origin).
Assay [10] shares this target. Nature of the assay: Inhibition of SIRT5 deglutarylase activity (unknown origin).
The target is the same in assay [11]. Nature of the assay: Inhibition of human recombinant SIRT5 using fluorogenic Benzyl-Lys(Succinyl)-AMC as substrate incubated for 2 hrs measured by fluoroscence based microplate reader method.
The target in assay [12] is T2, NAD-dependent protein deacetylase sirtuin-3, mitochondrial (Homo sapiens) (UniProt Q9NTG7).
T2 sequence (whole entry): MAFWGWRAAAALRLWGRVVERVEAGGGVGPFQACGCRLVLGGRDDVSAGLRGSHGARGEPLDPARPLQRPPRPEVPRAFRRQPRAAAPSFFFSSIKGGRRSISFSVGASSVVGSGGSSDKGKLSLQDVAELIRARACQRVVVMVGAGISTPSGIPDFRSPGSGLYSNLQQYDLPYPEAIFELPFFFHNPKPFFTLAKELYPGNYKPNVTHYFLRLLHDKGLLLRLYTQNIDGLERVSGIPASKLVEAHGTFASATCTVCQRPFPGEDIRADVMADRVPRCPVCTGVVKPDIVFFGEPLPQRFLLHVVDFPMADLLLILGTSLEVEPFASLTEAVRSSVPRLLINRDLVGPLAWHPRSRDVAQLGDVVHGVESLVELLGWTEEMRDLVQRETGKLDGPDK
In words: Inhibition of SIRT3 (unknown origin) at 10 uM relative to control.

Assay [13] deals with T1, NAD-dependent protein deacylase sirtuin-5, mitochondrial. In words: Binding affinity to SIRT5 (unknown origin) assessed as desuccinylation activity by measuring inhibition constant.
Assay [14] deals with T2, NAD-dependent protein deacetylase sirtuin-3, mitochondrial (Homo sapiens). Nature of the assay: Inhibition of SIRT3 (unknown origin) at 50 uM relative to control.
Assay [15] concerns the target T3, NAD-dependent protein deacetylase sirtuin-2 (Homo sapiens) (UniProt Q8IXJ6).
T3 sequence (whole entry): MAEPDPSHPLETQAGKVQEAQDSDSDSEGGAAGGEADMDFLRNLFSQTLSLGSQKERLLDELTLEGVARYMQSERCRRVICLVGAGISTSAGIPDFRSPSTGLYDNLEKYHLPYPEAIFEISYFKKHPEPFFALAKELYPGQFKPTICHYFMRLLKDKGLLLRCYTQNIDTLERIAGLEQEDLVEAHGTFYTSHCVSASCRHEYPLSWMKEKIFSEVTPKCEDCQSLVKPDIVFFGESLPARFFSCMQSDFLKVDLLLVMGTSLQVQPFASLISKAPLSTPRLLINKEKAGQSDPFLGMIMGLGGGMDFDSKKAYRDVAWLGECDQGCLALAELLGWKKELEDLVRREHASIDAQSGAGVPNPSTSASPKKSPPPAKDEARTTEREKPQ
In words: Inhibition of SIRT2 (unknown origin) at 50 uM relative to control.

Assay [16] deals with T4, NAD-dependent protein deacetylase sirtuin-1 (Homo sapiens) (UniProt Q96EB6).
T4 sequence (whole entry): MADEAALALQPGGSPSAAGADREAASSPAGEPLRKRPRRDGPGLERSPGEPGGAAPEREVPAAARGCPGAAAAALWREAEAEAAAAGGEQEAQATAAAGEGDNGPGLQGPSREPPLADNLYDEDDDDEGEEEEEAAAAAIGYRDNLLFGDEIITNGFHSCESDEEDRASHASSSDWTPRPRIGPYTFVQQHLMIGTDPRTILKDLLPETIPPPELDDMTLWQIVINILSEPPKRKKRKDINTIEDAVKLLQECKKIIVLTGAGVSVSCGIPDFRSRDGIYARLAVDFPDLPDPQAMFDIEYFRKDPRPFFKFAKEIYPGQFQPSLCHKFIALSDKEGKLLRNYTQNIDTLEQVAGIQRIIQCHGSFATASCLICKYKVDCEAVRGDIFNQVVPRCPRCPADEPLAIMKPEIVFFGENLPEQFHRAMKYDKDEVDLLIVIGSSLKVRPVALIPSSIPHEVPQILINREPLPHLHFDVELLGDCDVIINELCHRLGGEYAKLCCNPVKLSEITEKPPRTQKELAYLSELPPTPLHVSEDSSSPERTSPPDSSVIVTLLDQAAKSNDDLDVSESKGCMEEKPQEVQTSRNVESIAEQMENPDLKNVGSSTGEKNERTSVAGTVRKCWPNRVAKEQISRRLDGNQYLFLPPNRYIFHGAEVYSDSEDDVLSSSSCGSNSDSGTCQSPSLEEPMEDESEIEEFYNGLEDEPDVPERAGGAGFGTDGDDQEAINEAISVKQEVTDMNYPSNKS
Nature of the assay: Inhibition of SIRT1 (unknown origin) at 50 uM relative to control.

Assay [17] has as its target T4, NAD-dependent protein deacetylase sirtuin-1 (Homo sapiens). Nature of the assay: Inhibition of SIRT1 (unknown origin) at 10 uM relative to control.

We go through 13 compounds from ChEMBL document CHEMBL5137064, “Therapeutic Potential and Activity Modulation of the Protein Lysine Deacylase Sirtuin 5” (J Med Chem, 2022).

Each structure is given as a SMILES string. Where a SMILES comes first, the peptide text is derived from it. The star is where a group is joined. X2 = CC(CC(=O)*)(C(=O)O)c1ccccc1; Bz = O=C(c1ccccc1)*

As usually defined, the IC50 is the concentration that inhibits the measured activity by half. Usually Ki stands for a measure of affinity in units of concentration, obtained from inhibition or displacement. As a reminder, the inhibition is the relative decrease from the control value, in per cent.

As to `CC(C)NC(=O)[C@H](Cc1c[nH]c2ccccc12)NC(=O)[C@H](CCCCNC(=S)NCCC(=O)O)NC(=O)OCc1ccccc1`, the Activity in the assay on SKM-1 [1] and in the assay on OCI-AML2 [2] was over 80% throughout. `N=C(N)NCCC[C@@H]1NC(=O)CCCCC(=O)NCCCC[C@@H](C(N)=O)NC(=O)[C@H](CCCCNC(=S)NCCC(=O)O)NC1=O` came in with an IC50 in [3] of 6.5 µM. As for `O=C(O)CCNC(=S)NCCCC[C@H](NS(=O)(=O)c1cccc(F)c1)C(=O)N[C@@H](Cc1c[nH]c2ccccc12)C(=O)NC1CCC1`, the IC50 was over 20 µM in the assay on OCI-AML2 [4], 10 µM in the assay with SKM-1 [6] and 29 µM with MOLM-13. Moreover, the results for the Activity with SKM-1 [5] and in the assay on OCI-AML2 [8] were over 80% and 25%, respectively. In assay [7], the Ki turned out to be 0.006 µM. In the case of `O=C(NC1CCC1)[C@H](Cc1c[nH]c2ccccc12)NC(=O)[C@H](CCCCNC(=S)NCc1nnn[nH]1)NS(=O)(=O)c1cccc(F)c1`, the IC50 in assay [9] stood at 5.1 µM.

For `O=C(O)CCNC(=S)NCCCC[C@H](NS(=O)(=O)c1cccc(F)c1)C(=O)N[C@@H](Cc1c[nH]c2ccccc12)C(=O)NC1CC1`, 0.26 µM corresponded to half-maximal inhibition in assay [10] (IC50).

Turning to `Cc1ccc(NC(=O)/C(C#N)=C/c2ccc(-c3ccc(C(=O)O)cc3C)o2)cc1C`, in assay [11], the IC50 was 57.4 µM. For `Cc1ccc(NC(=O)/C(C#N)=C/c2ccc(-c3cccc(C(=O)O)c3)o2)cc1C`, the IC50 in assay [11] was 101 µM. For the compound `O=C(NC1CCC1)[C@H](Cc1c[nH]c2ccccc12)NC(=O)[C@H](CCCCNC(=S)NCCc1cc(O)on1)NS(=O)(=O)c1cccc(F)c1`, the inhibition in assay [12] was 40%. The compound further gave an IC50 in [10] of 0.29 µM.

Consider `CC(C)C[C@H](NC(=O)[C@@H](NC(=O)CNC(=O)c1ccccc1)C(C)C)C(=O)N[C@@H](CCCCNC(=O)CC(C)(C(=O)O)c1ccccc1)C(=O)N[C@@H](CCC(=O)O)C(=O)N[C@@H](Cc1ccc(O)cc1)C(=O)NCC(=O)N[C@H](C(N)=O)C(C)C` (some centres undefined) (Bz-GVLK(X2)EYGV-NH2), for which, in assay [13], the Ki is 4.3 µM. The figures for the inhibition in [14], in [15] and in assay [16] were under 1%, 4% and under 1%, respectively. With `O=C(NC1CCC1)[C@H](Cc1c[nH]c2ccccc12)NC(=O)[C@H](CCCCNC(=S)NCCc1noc(=O)[nH]1)NS(=O)(=O)c1cccc(F)c1`, the inhibition in assay [17] came to 37%. This compound also displayed an IC50 in assay [10] of at most 0.05 µM. `N=C(N)NCCC[C@@H]1NC(=O)CCC(=O)NCCCC[C@@H](C(N)=O)NC(=O)[C@H](CCCCNC(=S)NCCC(=O)O)NC1=O` displayed an IC50 in [3] of 4 µM. `N#C/C(=C\c1ccc(-c2ccc(C(=O)O)cc2)o1)C(=O)Nc1ccc(C#N)c(C(F)(F)F)c1`: the IC50 in [11] amounted to 13.9 µM. On the same count and under the same terms, under `N#C/C(=C\c1ccc(-c2ccc(C(=O)O)cc2)o1)C(=O)Nc1ccc(Cl)c(C(F)(F)F)c1` stands 16.4 µM.
